Active and inactive are the calls of the source. The calls are words filed in the database; no cut-off is given here.
Experiments:
Apelin receptor [1] = target: T1, Apelin receptor (Homo sapiens, UniProt P35414); experiment: Displacement of [125I]-pE13F from human apelin receptor expressed in CHO cell membranes after 1 hr by gamma counting analysis
T1 sequence (P35414 whole entry): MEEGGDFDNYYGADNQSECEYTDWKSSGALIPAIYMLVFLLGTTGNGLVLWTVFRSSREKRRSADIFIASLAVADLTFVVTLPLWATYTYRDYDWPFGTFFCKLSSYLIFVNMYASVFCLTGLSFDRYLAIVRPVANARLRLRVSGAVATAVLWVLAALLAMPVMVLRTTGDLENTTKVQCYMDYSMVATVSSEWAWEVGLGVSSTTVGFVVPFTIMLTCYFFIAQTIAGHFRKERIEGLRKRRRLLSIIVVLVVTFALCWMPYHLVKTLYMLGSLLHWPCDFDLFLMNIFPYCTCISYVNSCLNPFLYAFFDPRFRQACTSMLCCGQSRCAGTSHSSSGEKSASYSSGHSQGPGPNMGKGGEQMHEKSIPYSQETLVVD

[2] = target: T2, Apelin receptor (Rattus norvegicus) (UniProt Q9JHG3); experiment: Agonist activity at rat apelin receptor expressed in CHO cell membranes coexpressing EGFP assessed as inhibition of forskolin-induced cAMP production after 30 mins by fluorescence analysis relative to control; assay type: functional, cell-based
T2 sequence (whole entry): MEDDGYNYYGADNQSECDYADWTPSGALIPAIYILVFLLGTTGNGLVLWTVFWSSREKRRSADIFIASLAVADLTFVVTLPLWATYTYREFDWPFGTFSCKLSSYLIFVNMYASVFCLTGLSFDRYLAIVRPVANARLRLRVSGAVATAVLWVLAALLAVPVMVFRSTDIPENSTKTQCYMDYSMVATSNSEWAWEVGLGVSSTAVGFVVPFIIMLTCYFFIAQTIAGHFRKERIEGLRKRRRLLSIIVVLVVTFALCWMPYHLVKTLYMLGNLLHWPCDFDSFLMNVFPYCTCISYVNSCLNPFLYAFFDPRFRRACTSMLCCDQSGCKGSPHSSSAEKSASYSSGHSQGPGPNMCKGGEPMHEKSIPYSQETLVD

[3] = target: T2, Apelin receptor (Rattus norvegicus); experiment: Agonist activity at rat apelin receptor expressed in CHO cell membranes coexpressing EGFP assessed as receptor internalization at 100 uM after 20 mins by confocal microscopic analysis; assay type: cell-based
[4] = Half life in mouse plasma at 5 uM at 37 degC by LC-MS analysis; assay type: ADME, cell-free
Apelin receptor [5] = target: T3, Apelin receptor (Rattus norvegicus, UniProt Q9JHG3); experiment: (§1) Agonist activity at rat apelin receptor expressed in CHO cell membranes coexpressing EGFP assessed as inhibition of forskolin-induced cAMP production after 30 mins by fluorescence analysis; assay type: functional, cell-based
T3 sequence (Q9JHG3 whole entry): T2 sequence (whole entry)

[6] = target: T2, Apelin receptor (Rattus norvegicus); experiment: as §1; assay type: functional, cell-based
[7] = target: T4, Type-1 angiotensin II receptor (Homo sapiens, UniProt P30556); experiment: Displacement of [125I]-angiotensin 2 from human angiotensin 2 type-1 receptor expressed in CHO cell membranes after 1 hr by gamma counting analysis
T4 sequence (P30556 whole entry): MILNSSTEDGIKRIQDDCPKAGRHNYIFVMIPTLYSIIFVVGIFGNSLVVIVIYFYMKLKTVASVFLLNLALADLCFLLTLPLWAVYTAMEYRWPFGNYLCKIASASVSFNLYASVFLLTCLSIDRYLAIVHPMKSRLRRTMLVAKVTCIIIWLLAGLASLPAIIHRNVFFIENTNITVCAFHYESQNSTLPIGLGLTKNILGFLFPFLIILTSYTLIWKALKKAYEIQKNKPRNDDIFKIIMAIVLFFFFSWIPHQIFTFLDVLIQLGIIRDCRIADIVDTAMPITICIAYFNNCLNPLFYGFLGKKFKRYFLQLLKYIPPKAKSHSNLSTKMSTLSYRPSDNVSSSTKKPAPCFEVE

[8] = Dissociation constant, pKa of the compound in water at 2 mM by potentiometric titration analysis; assay type: physicochemical
[9] = target: T2, Apelin receptor (Rattus norvegicus); experiment: Agonist activity at rat apelin receptor expressed in CHO cell membranes coexpressing EGFP assessed as receptor internalization at 100 nM after 20 mins by confocal microscopic analysis; assay type: cell-based

Ki (Apelin receptor [1]) [µM] | Activity [3] | Compound | further results
9 | – | CCN(CC)c1ccc2c(-c3ccc(S(=O)(=O)NCCCCCCCCCCCCNC(=O)NCCCC[C@H](NC(=O)Cc4csc(=N)[nH]4)C(=O)N[C@@H](Cc4cn(Cc5ccccc5)cn4)C(=O)NC4CCN(C)CC4)cc3S(=O)(=O)[O-])c3ccc(=[N+](CC)CC)cc-3oc2c1 | –
0.089 | inactive | CCN(CC)c1ccc(C(=C2C=CC(=[N+](CC)CC)C=C2)c2ccc(S(=O)(=O)NCCCC[C@H](NC(=O)Cc3csc(=N)n3C)C(=O)N[C@@H](Cc3cn(Cc4ccccc4)c[n+]3C)C(=O)NC3CCN(C)CC3)cc2S(=O)(=O)[O-])cc1.O=C(O)C(F)(F)F.O=C(O)C(F)(F)F.O=C([O-])C(F)(F)F | Imax [2]: 69%; half-life at 5 µM [4]: > 10 h; IC50 (Apelin receptor [5]): 1.7 µM; inhibition [6]: Dose-dependent effect; Ki [7]: 98 µM
0.4 | Active | CCN(CC)c1ccc2c(-c3ccc(S(=O)(=O)NCCCC[C@H](NC(=O)Cc4csc(=N)n4C)C(=O)N[C@@H](Cc4cn(Cc5ccccc5)c[n+]4C)C(=O)NC4CCN(C)CC4)cc3S(=O)(=O)[O-])c3ccc(=[N+](CC)CC)cc-3oc2c1.O=C(O)C(F)(F)F.O=C(O)C(F)(F)F.O=C([O-])C(F)(F)F | Imax [2]: 77%; half-life at 5 µM [4]: > 10 h; IC50 (Apelin receptor [5]): 3 µM; inhibition [6]: Dose-dependent effect; Ki [7]: > 1000 µM
> 100 | – | CC(=O)NCCCC[C@H](NC(=O)Cc1csc(=N)n1C)C(=O)N[C@@H](Cc1cn(Cc2ccccc2)c[n+]1C)C(=O)NC1CCN(C)CC1 | –
– | – | COC(=O)Cc1csc(=N)n1C | pKa at 2000 µM [8]: 9.77
0.98 | inactive | CCN(CC)c1ccc2c(-c3ccc(S(=O)(=O)NCCCC[C@H](NC(=O)Cc4csc(=N)n4C)C(=O)N[C@@H](Cc4cn(Cc5ccccc5)c[n+]4C)C(=O)NC4CCOCC4)cc3S(=O)(=O)[O-])c3ccc(=[N+](CC)CC)cc-3oc2c1 | –
0.45 | inactive | CCN(CC)c1ccc2c(-c3ccc(S(=O)(=O)NCCCC[C@H](NC(=O)Cc4csc(=N)n4C)C(=O)N[C@@H](C)C(=O)NC4CCN(C)CC4)cc3S(=O)(=O)[O-])c3ccc(=[N+](CC)CC)cc-3oc2c1 | –
0.43 | – | CCN(CC)c1ccc2c(-c3ccc(S(=O)(=O)NCCCCCCCCCCCCNC(=O)NCCCC[C@H](NC(=O)Cc4csc(=N)n4C)C(=O)N[C@@H](Cc4cn(Cc5ccccc5)c[n+]4C)C(=O)NC4CCN(C)CC4)cc3S(=O)(=O)O)c3ccc(=[N+](CC)CC)cc-3oc2c1 [listing 1 of 2 here] | –
1.4 | – | CCN(CC)c1ccc2c(-c3ccc(S(=O)(=O)NCCCCCCCCCCCCNC(=O)NCCCC[C@H](NC(=O)Cc4csc(=N)n4C)C(=O)N[C@@H](Cc4cn(Cc5ccccc5)c[n+]4C)C(=O)NC4CC[N+](C)(C)CC4)cc3S(=O)(=O)O)c3ccc(=[N+](CC)CC)cc-3oc2c1 | –
– | – | COC(=O)Cc1csc(N)n1 | pKa at 2000 µM [8]: 4.83
0.97 | – | CCN(CC)c1ccc2c(-c3ccc(S(=O)(=O)NCCCC[C@H](NC(=O)Cc4csc(=N)n4C)C(=O)N[C@@H](Cc4cn(Cc5ccccc5)c[n+]4C)C(=O)N[C@@H](C)C(N)=O)cc3S(=O)(=O)O)c3ccc(=[N+](CC)CC)cc-3oc2c1 | –
0.85 | inactive | CCN(CC)c1ccc2c(-c3ccc(S(=O)(=O)NCCCC[C@H](NC(=O)Cc4csc(=N)[nH]4)C(=O)N[C@@H](Cc4cn(Cc5ccccc5)c[n+]4C)C(=O)NC4CCN(C)CC4)cc3S(=O)(=O)[O-])c3ccc(=[N+](CC)CC)cc-3oc2c1 | –
0.27 | Active | CCN(CC)c1ccc2c(-c3ccc(S(=O)(=O)NCCCC[C@H](NC(=O)Cc4csc(=N)n4C)C(=O)N[C@@H](Cc4cn(Cc5ccccc5)c[n+]4C)C(=O)NC4CCN(Cc5ccccc5)CC4)cc3S(=O)(=O)[O-])c3ccc(=[N+](CC)CC)cc-3oc2c1 | –
0.31 | Active | CCN(CC)c1ccc2c(-c3ccc(S(=O)(=O)NCCCCCCNC(=O)NCCCC[C@H](NC(=O)Cc4csc(=N)n4C)C(=O)N[C@@H](Cc4cn(Cc5ccccc5)c[n+]4C)C(=O)NC4CCN(C)CC4)cc3S(=O)(=O)[O-])c3ccc(=[N+](CC)CC)cc-3oc2c1 | –
> 100 | – | CCN(CC)c1ccc2c(-c3ccc(S(=O)(=O)NCCCCNCCCC[C@H](NC(=O)Cc4csc(=N)n4C)C(=O)N[C@@H](Cc4cn(Cc5ccccc5)c[n+]4C)C(=O)NC4CCN(C)CC4)cc3S(=O)(=O)O)c3ccc(=[N+](CC)CC)cc-3oc2c1 | –
1.5 | – | CCN(CC)c1ccc2c(-c3ccc(S(=O)(=O)NCCCCCCCCCCCCNC(=O)NCCCC[C@H](NC(=O)Cc4csc(=N)n4C)C(=O)N[C@@H](Cc4cn(Cc5ccccc5)cn4)C(=O)NC4CCN(C)CC4)cc3S(=O)(=O)[O-])c3ccc(=[N+](CC)CC)cc-3oc2c1 | –
3 | – | CCN(CC)c1ccc2c(-c3ccc(S(=O)(=O)NCCCCCCCCCCCCNC(=O)NCCCC[C@H](NC(=O)Cc4csc(=N)n4C)C(=O)N[C@@H](Cc4cn(Cc5ccccc5)cn4)C(=O)NC4CC[N+](C)(C)CC4)cc3S(=O)(=O)O)c3ccc(=[N+](CC)CC)cc-3oc2c1 | –
0.69 | – | CCN(CC)c1ccc2c(-c3ccc(S(=O)(=O)NCCCCCCCCCCCCNC(=O)NCCCC[C@H](NC(=O)Cc4csc(=N)n4C)C(=O)N[C@@H](Cc4cn(Cc5ccccc5)c[n+]4C)C(=O)NC4CCN(C)CC4)cc3S(=O)(=O)O)c3ccc(=[N+](CC)CC)cc-3oc2c1 [listing 2 of 2 here] | half-life at 5 µM [4]: > 10 h; IC50 (Apelin receptor [5]): 4.3 µM; Ki [7]: 2.23 µM
0.18 | Active | CCN(CC)c1ccc2c(-c3ccc(S(=O)(=O)NCCCC[C@H](NC(=O)Cc4csc(=N)n4C)C(=O)N[C@@H](Cc4cn(Cc5ccccc5)c[n+]4C)C(=O)NCC4CCN(C)CC4)cc3S(=O)(=O)[O-])c3ccc(=[N+](CC)CC)cc-3oc2c1 | –
1.2 | – | CCN(CC)c1ccc2c(-c3ccc(S(=O)(=O)NCCCC[C@H](NC(C)=O)C(=O)N[C@@H](Cc4cn(Cc5ccccc5)c[n+]4C)C(=O)NC4CCN(C)CC4)cc3S(=O)(=O)O)c3ccc(=[N+](CC)CC)cc-3oc2c1 | –
– | Active | CCN(CC)c1ccc2c(-c3ccc(S(=O)(=O)NCCCCCCCCCCCCNC(=O)NCCCC[C@H](NC(=O)Cc4csc(=N)n4C)C(=O)N[C@@H](Cc4cn(Cc5ccccc5)c[n+]4C)C(=O)NC4CCN(C)CC4)cc3S(=O)(=O)[O-])c3ccc(=[N+](CC)CC)cc-3oc2c1 | Imax [2]: 100%; inhibition [6]: Dose-dependent effect
– | – | CSCC[C@H](NC(=O)[C@@H]1CCCN1C(=O)CNC(=O)[C@H](CCCCN)NC(=O)[C@H](Cc1cnc[nH]1)NC(=O)[C@H](CO)NC(=O)[C@H](CC(C)C)NC(=O)[C@H](CCCNC(=N)N)NC(=O)[C@@H]1CCCN1C(=O)[C@H](CCCNC(=N)N)NC(=O)[C@H](CCC(N)=O)NC(=O)[C@H](CCCNC(=N)N)NC(=O)[C@H](CCCNC(=N)N)NC(=O)[C@H](Cc1ccccc1)NC(=O)[C@@H](N)CCCCN)C(=O)N1CCC[C@H]1C(=O)N[C@@H](Cc1ccccc1)C(=O)O | Imax [2]: 85%; Activity [9]: Active; half-life at 5 µM [4]: 0.0767 h; IC50 (Apelin receptor [5]): 0.0014 µM; inhibition [6]: Dose-dependent effect; Ki [7]: > 100 µM
0.96 | Active | CCN(CC)c1ccc2c(-c3ccc(S(=O)(=O)NCCCC[C@H](NC(=O)Cc4csc(=N)n4C)C(=O)N[C@@H](Cc4cn(Cc5ccccc5)cn4)C(=O)NC4CCN(C)CC4)cc3S(=O)(=O)[O-])c3ccc(=[N+](CC)CC)cc-3oc2c1 | –
